Test results from ChEMBL document CHEMBL4130561, “Design and Synthesis of N1-Modified Imidazoquinoline Agonists for Selective Activation of Toll-like Receptors 7 and 8” (ACS Med Chem Lett, 2017).
Each block holds one compound with its values, some of them ahead of it. Active and inactive are the calls of the source. The calls are words filed in the database; no cut-off is given here.

Experiments:
[1] = molecular target: T1, Toll-like receptor 8 (Homo sapiens) (UniProt Q9NR97); assay: Agonist activity at human TLR8 expressed in HEK cells at 180 uM after 8 to 12 hrs by NFkappaB/SEAP reporter gene assay; type: cell-based
T1 sequence (whole entry): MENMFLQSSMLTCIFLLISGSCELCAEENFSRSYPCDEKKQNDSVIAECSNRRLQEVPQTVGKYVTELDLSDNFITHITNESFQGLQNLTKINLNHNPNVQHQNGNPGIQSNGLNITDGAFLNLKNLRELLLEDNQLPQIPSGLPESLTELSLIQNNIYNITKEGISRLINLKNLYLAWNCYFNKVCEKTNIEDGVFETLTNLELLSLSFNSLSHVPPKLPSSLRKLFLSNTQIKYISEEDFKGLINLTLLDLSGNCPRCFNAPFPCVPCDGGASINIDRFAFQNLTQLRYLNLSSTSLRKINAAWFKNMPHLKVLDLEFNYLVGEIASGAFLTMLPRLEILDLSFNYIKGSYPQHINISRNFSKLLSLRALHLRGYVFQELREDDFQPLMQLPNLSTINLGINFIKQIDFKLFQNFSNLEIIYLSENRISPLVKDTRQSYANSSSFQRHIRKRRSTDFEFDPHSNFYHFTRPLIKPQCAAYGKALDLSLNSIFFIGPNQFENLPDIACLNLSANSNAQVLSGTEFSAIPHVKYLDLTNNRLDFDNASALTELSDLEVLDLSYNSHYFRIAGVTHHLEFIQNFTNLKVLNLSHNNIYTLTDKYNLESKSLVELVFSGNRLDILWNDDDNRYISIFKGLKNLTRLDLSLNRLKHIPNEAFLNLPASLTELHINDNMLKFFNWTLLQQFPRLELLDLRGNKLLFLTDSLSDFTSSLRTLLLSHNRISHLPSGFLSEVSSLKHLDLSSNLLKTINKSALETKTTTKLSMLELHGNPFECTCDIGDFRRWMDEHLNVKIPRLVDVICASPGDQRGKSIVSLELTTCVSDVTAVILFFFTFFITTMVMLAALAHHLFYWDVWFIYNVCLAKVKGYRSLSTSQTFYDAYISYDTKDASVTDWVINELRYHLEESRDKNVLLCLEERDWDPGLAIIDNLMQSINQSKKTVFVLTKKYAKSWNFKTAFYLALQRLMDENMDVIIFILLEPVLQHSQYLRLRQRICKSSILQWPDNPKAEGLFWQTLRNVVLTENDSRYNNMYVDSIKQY

Toll-like receptor 8 = molecular target: T2, Toll-like receptor 8 (Homo sapiens, UniProt Q9NR97); assay: Agonist activity at human TLR8 expressed in HEK cells after 8 to 12 hrs by NFkappaB/SEAP reporter gene assay; type: cell-based
T2 sequence (Q9NR97 whole entry): T1 sequence (whole entry)

Toll-like receptor 7 = molecular target: T3, Toll-like receptor 7 (Homo sapiens, UniProt Q9NYK1); assay: Agonist activity at human TLR7 expressed in HEK cells after 8 to 12 hrs by NFkappaB/SEAP reporter gene assay; type: cell-based
T3 sequence (Q9NYK1 whole entry): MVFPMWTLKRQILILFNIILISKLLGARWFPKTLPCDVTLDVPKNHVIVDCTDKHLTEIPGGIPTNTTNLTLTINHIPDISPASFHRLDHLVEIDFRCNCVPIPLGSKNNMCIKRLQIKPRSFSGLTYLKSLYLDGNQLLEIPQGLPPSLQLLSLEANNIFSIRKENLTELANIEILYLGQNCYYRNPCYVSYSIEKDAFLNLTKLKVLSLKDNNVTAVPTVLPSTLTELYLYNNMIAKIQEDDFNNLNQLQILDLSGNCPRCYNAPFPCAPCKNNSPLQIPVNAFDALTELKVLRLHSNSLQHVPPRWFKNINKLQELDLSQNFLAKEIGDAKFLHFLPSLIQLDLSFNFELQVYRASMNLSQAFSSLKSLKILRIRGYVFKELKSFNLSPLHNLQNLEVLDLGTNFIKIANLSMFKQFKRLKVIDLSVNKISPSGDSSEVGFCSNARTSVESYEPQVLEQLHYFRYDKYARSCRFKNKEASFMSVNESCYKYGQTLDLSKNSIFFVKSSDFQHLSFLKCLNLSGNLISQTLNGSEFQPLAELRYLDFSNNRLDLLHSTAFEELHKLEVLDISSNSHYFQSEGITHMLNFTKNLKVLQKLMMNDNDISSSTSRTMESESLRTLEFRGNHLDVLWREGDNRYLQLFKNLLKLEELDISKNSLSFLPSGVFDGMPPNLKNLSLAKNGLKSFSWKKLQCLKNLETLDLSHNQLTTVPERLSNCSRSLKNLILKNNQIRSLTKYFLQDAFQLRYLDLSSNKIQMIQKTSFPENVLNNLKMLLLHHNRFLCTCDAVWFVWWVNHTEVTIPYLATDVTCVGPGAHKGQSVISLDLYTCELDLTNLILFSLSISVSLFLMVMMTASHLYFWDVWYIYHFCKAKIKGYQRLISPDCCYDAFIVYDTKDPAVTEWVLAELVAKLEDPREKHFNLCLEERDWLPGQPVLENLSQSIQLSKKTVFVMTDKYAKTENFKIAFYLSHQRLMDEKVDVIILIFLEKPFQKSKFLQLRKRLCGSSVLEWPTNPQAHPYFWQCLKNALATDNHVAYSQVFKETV

[2] = molecular target: T4, Toll-like receptor 7 (Homo sapiens) (UniProt Q9NYK1); assay: Agonist activity at human TLR7 expressed in HEK cells at 180 uM after 8 to 12 hrs by NFkappaB/SEAP reporter gene assay; type: cell-based
T4 sequence (whole entry): T3 sequence (Q9NYK1 whole entry)

PBMC [3] = assay: Immunostimulatory activity in human PBMC assessed as increase in IFNgamma levels at 12.5 uM after 24 hrs by ELISA; type: functional, cell-based
PBMC [4] = assay: Immunostimulatory activity in human PBMC assessed as increase in IL-1beta levels at 12.5 uM after 24 hrs by ELISA; type: functional, cell-based
PBMC [5] = assay: Immunostimulatory activity in human PBMC assessed as increase in IL-12p70 levels at 12.5 uM after 24 hrs by ELISA; type: functional, cell-based
PBMC [6] = assay: Immunostimulatory activity in human PBMC assessed as increase in IL-1beta levels at 1 uM after 24 hrs by ELISA; type: functional, cell-based
PBMC [7] = assay: Immunostimulatory activity in human PBMC assessed as increase in IFNgamma levels at 1 uM after 24 hrs by ELISA; type: functional, cell-based
PBMC [8] = assay: Immunostimulatory activity in human PBMC assessed as increase in TNFalpha levels at 1 uM after 24 hrs by ELISA; type: functional, cell-based
PBMC [9] = assay: Immunostimulatory activity in human PBMC assessed as increase in TNFalpha levels at 12.5 uM after 24 hrs by ELISA; type: functional, cell-based
PBMC [10] = assay: Immunostimulatory activity in human PBMC assessed as increase in IL-1beta levels at 0.39 to 50 uM after 24 hrs by ELISA; type: functional, cell-based
PBMC [11] = assay: Immunostimulatory activity in human PBMC assessed as increase in IFNgamma levels at 0.39 to 50 uM after 24 hrs by ELISA; type: functional, cell-based
PBMC [12] = assay: Immunostimulatory activity in human PBMC assessed as increase in TNFalpha levels at 0.39 to 50 uM after 24 hrs by ELISA; type: functional, cell-based
PBMC [13] = assay: Immunostimulatory activity in human PBMC assessed as increase in IL-12p70 levels at 0.39 to 50 uM after 24 hrs by ELISA; type: functional, cell-based

- EC50 (Toll-like receptor 8): 37 µM
- EC50 (Toll-like receptor 7): 14.4 µM
Structure (SMILES): CCCCc1nc2c(N)nc3cc(C(=O)OC)ccc3c2n1CCO

- Activity [2]: inactive
Structure (SMILES): CCCCc1nc2c(N)nc3cc(C(=O)OC)ccc3c2n1CCN
- Activity (PBMC [3]): Active
- Activity (PBMC [4]): Active
- Activity (PBMC [5]): Active

- Activity [1]: inactive
Structure (SMILES): CCCCc1nc2c(N)nc3cc(C(=O)OC)ccc3c2n1CCSC
- Activity (PBMC [6]): Active
- Activity (PBMC [7]): Active
- Activity (PBMC [8]): Active

- Activity [1]: inactive
Structure (SMILES): CCCCc1nc2c(N)nc3cc(C(=O)OC)ccc3c2n1CC(=O)OC

- Activity [1]: inactive
- EC50 (Toll-like receptor 7): 3.21 µM
Structure (SMILES): CCCCc1nc2c(N)nc3cc(C(=O)OC)ccc3c2n1CCCCO

- Activity [1]: inactive
Structure (SMILES): CCCCc1nc2c(N)nc3cc(C(=O)OC)ccc3c2n1CCCC(=O)OC

- Activity [1]: inactive
Structure (SMILES): CCCCc1nc2c(N)nc3cc(C(=O)OC)ccc3c2n1Cc1ccc(C(=O)O)cc1

- Activity [1]: inactive
- EC50 (Toll-like receptor 7): 3.06 µM
Structure (SMILES): CCCCc1nc2c(N)nc3cc(C(=O)OC)ccc3c2n1CC(C)OC(C)=O (configuration not stated)

- Activity [1]: inactive
Structure (SMILES): CCCCc1nc2c(N)nc3cc(C(=O)OC)ccc3c2n1CCSCC

The remaining lines, values behind:

Structure (SMILES): CCCCc1nc2c(N)nc3cc(C(=O)OC)ccc3c2n1CCCCC(=O)OC
- Activity [1]: inactive

Structure (SMILES): CCCCc1nc2c(N)nc3cc(C(=O)OC)ccc3c2n1CCCCN
- Activity [2]: inactive

Structure (SMILES): CCCCc1nc2c(N)nc3cc(C(=O)OC)ccc3c2n1CCCCCC(=O)OC
- Activity [1]: inactive

Structure (SMILES): CCCCc1nc2c(N)nc3cc(C(=O)OC)ccc3c2n1CCCCC(=O)O
- Activity [1]: inactive
- Activity [2]: inactive

Structure (SMILES): CCCCc1nc2c(N)nc3cc(C(=O)OC)ccc3c2n1CCc1ccc(C(=O)O)cc1
- Activity [1]: inactive
- Activity [2]: inactive

Structure (SMILES): CCCCc1nc2c(N)nc3cc(C(=O)OC)ccc3c2n1CCCSC
- Activity [1]: inactive

Structure (SMILES): CCCCc1nc2c(N)nc3cc(C(=O)OC)ccc3c2n1CC(C)(C)O
- EC50 (Toll-like receptor 8): 20.9 µM
- EC50 (Toll-like receptor 7): 1.69 µM

Structure (SMILES): CCCCCCCC(=O)OC(C)Cn1c(CCCC)nc2c(N)nc3cc(C(=O)OC)ccc3c21 (configuration not stated)
- Activity [1]: inactive
- Activity [2]: inactive

Structure (SMILES): CCCCc1nc2c(N)nc3cc(C(=O)OC)ccc3c2n1Cc1ccc(CN)cc1
- Activity (PBMC [9]): Active

Structure (SMILES): CC(C)Cn1cnc2c(N)nc3ccccc3c21 [IMIQUIMOD]
- Activity [1]: inactive
- Activity (PBMC [10]): inactive
- Activity (PBMC [11]): inactive
- Activity (PBMC [12]): inactive
- Activity (PBMC [13]): inactive
- EC50 (Toll-like receptor 7): 11.4 µM

Structure (SMILES): CCCCc1nc2c(N)nc3cc(C(=O)OC)ccc3c2n1CCCN
- Activity [2]: inactive
- EC50 (Toll-like receptor 8): 26.7 µM

Structure (SMILES): CCCCc1nc2c(N)nc3cc(C(=O)OC)ccc3c2n1CCCO
- Activity [1]: inactive
- EC50 (Toll-like receptor 7): 1.72 µM

Structure (SMILES): CCCCc1nc2c(N)nc3cc(C(=O)OC)ccc3c2n1CCC(=O)OC
- Activity [1]: inactive
